Results reported in BindingDB's records for doi:10.1016/s0960-894x(02)00206-8 (Bristol-Myers Squibb, 2002).

Experiment: In vitro C-C chemokine receptor type 3 activity of compound by using eotaxin induced human eosinophil chemotaxis assay

IC50 [nM] | Compound
20 | CC[C@H](O)[C@H]1C[C@@H](Cc2ccccc2)CCN1CCCNC(=O)Nc1cccc(C(C)=O)c1 [1-(3-Acetyl-phenyl)-3-{3-[(2R,4S)-4-benzyl-2-((S)-1-hydroxy-propyl)-piperidin-1-yl]-propyl}-urea]
80 | N#Cc1cccc(NC(=O)NCCCN2CCC(Cc3ccc(F)cc3)CC2)c1 [1-(3-Cyano-phenyl)-3-{3-[4-(4-fluoro-benzyl)-piperidin-1-yl]-propyl}-urea]
200 | N#Cc1cccc(NC(=O)NCCCN2CCC(Cc3ccc(Cl)cc3)CC2)c1 [1-{3-[4-(4-Chloro-benzyl)-piperidin-1-yl]-propyl}-3-(3-cyano-phenyl)-urea]
